Legend:
[1] = system: EpiOral tissue model (ORL-200), human oral mucosa; assay: Safety and toxicological profile on human oral mucosa (MTT cell viability); assay type: cell-based; conditions: excipient composition at 50%, Triton X-100 at 1%; for mean percent viability: mean of two experiments
Procedure: This study was conducted to evaluate the safety and toxicological profile of disclosed excipient compositions in comparison to Triton X-100 (positive control) and distilled water (negative control), using a 3D model of the human oral mucosa. Triton X-100 is a non-ionic surfactant, which is not approved for oral use.
Methodology: The materials used in this study include EpiOral™ tissue samples, disclosed excipient composition (Lot: 6481454) at 50% (diluted in distilled water), and Triton X-100 at 1%. The EpiOral™ tissue model (ORL-200) comprises of normal human-derived non-keratinized oral epithelial cells, cultured and differentiated to resemble the native buccal tissue of the human oral mucosa. Following tissue preparation, 40 μL of disclosed excipient composition at 50% and Triton X-100 at 1% were applied onto separate EpiOral tissue samples and left to incubate at 37° C. Incubation intervals were 1, 4.5, and 20 hours. Application of distilled water on an EpiOral tissue served as the negative control. After the allotted exposure time, each tissue was rinsed twice with phosphate buffer saline (PBS) and excess liquid was removed. Afterwards, 300 μL of 3-[4,5-dimethylthiazol-2yl]-2,5-diphenyltetrazolium bromide (MTT) solution was added to the EpiOral tissues and left to incubate for 3 hours. MTT was used as an indicator of cell viability. Succinate dehydrogenase enzymes within the mitochondria of viable cells have the ability to reduce soluble yellow tetrazonium salt of MTT to an insoluble purple formazan derivative. After 3 hours of exposure to MTT, the tissues were immersed in 2 mL of extraction solution, sealed in a plastic bag, and stored at room temperature overnight. The excess liquid was then decanted and the remaining extractant solution was agitated. A 200 μL aliquot of each extract was evaluated using a Molecular Device SpectraMax® M5 Microplate Reader. This device quantifies the absorbance potential of the samples at 570 nm, a wavelength absorbed by reduced MTT. This experiment was repeated two months following initial testing using identical methodology and the Electrolyte Saliva Gel (PCCA Formula #11150), which consists of sodium chloride, potassium chloride, calcium chloride, and a flavor extract in disclosed excipient composition (Lot: 6481454) at 50% (diluted in distilled water).
Results and Discussion: Toxicological profiles for disclosed excipient composition and the positive control, Triton X-100 at 1%, were compared by examining absorbancy potentials of the extracts collected from both experiments. […] Mean percent cell viabilities were calculated for the two experiments and are illustrated in FIG. 3. […]

[2] = system: EpiVaginal tissue model, human vaginal mucosa; assay: Safety and toxicological profile on human vaginal mucosa (MTT cell viability); assay type: cell-based; conditions: Triton X-100 at 1%
Procedure: This study was conducted to evaluate the safety and toxicological profile of disclosed excipient compositions in comparison to Triton X-100 (positive control) by employing the EpiVaginal™ tissue model, developed by the MatTek Corporation (Ashland, Mass., USA), which is a highly differentiated 3D model of the human vaginal mucosa. The EpiVaginal™ multi-layered tissue model comprises normal, human-derived vaginal-ectocervical (VEC) epithelial and dendritic cells (DC), cultured and differentiated to resemble the growth and morphological characteristics of the human vaginal mucosa. Triton X-100 is a non-ionic surfactant that can be used as a solubilizer, stabilizer, and emulsifier.
Methodology: Following tissue preparation, within a 6-well plate, 100 μL of disclosed excipient composition at 100% and Triton X-100 at 1% were applied onto separate EpiVaginal tissue samples and left to incubate at 37° C. for 45 minutes to 20 hours. Following incubation, tissues were rinsed twice with Phosphate Buffer Saline (PBS) and excess liquid was removed. A 300 μL of 3-[4,5-dimethylthiazol-2yl]-2,5-diphenyltetrazolium bromide (MTT) solution was then added to the tissues and left to incubate for 3 hours. MTT served as an indicator of cell viability. Succinate dehydrogenase enzymes within the mitochondria of viable cells have the ability to reduce soluble yellow tetrazonium salt of MTT to an insoluble purple formazan derivative. Tissues were then immersed in 2 mL of extraction solution and sealed in a plastic bag to soak overnight at room temperature. Excess liquid was decanted the following day, the remaining extractant solution was agitated, and 200 μL aliquot of each extract was evaluated with a Molecular Device SpectraMax® M5 Microplate Reader. This device quantifies the absorbance potential of the samples at 570 nm, a wavelength absorbed by the formazan derivative.

Triton X-100 gave a mean percent viability ([1]; 1 hour exposure) of 117%, a mean percent viability ([1]; 4.5 hours exposure) of 30% and a mean percent viability ([1]; 20 hours exposure) of 6%. The “ET50, the time at which percent viability would be 50%” value ([1]; estimated from semi-log plot) was 3.2 h, the percent cell viability ([2]; 45 minutes exposure) was 97% and the percent cell viability ([2]; 2 hours exposure) was 26%. The “ET50, time when percent cell viability is reduced to 50%” value ([2]; estimated from semi-log plot) was 86.4 min.
